A word on the IC50: it is the midpoint of a concentration-inhibition curve.

The results in this text go back to patent US12600714B2, “Substituted pyrazinecarboxamide compounds for treating diseases related to EGFR mutation” (WIGEN BIOMEDICINE TECHNOLOGY (SHANGHAI) CO., LTD., priority 2020, dated 2026).

One assay deals with EGFR (del19/T790M/C797S). Kind of assay: HTRF inhibitory activity assay against EGFR (del19/T790M/C797S) enzyme. The assay is classed as biochemical. In outline:
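Wild-type or mutant EGFR preincubated with serially diluted compound 10 min at 28 °C, then reacted 40 min at room temperature with biotinylated TK substrate and ATP. Phosphorylation detected by HTRF (Eu-cryptate anti-TK antibody, streptavidin-XL665, 60 min), 665/615 nm ratio; % inhibition and IC50 vs control.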

The subject of assay [1] is H1975 cells carrying EGFR T790M mutation. In words: In vivo pharmacodynamic study, mouse H1975 subcutaneous xenograft tumor model. To be noted: intragastric once daily, day 28, H1975 xenograft. The arrangement: species or system BALB/c nude mice. The procedure: In Vivo Pharmacodynamic Study—Mouse H1975 Subcutaneous Xenograft Tumor Model
(§1) BALB/c nude mice were grafted subcutaneously on the left dorsum with 5×10^6 H1975 cells carrying EGFR T790M mutation. After the tumor grew to 100-150 mm^3, the mice were randomly divided into the following groups for intragastric administration once daily: group 1: vehicle control; group 2: compound 511 (60 mg/kg); and group 3: compound 511 (80 mg/kg). The tumor volume was measured twice weekly and at the end of treatment. Tumor growth inhibition of the compound was calculated according to the following equation: tumor growth inhibition (TGI)=1−(tumor volume on day 28 in treatment group−tumor volume on day 1 in treatment group)/(tumor volume on day 28 in vehicle control group−tumor volume on day 1 in treatment group).

The next assay addresses EGFR (WT) (Homo sapiens, UniProt P00533). Kind of assay: HTRF inhibitory activity assay against EGFR (WT) enzyme. The class given is biochemical. As to the method: (§2) Inhibitory Activity Assay of the Compounds Disclosed Herein Against EGFR (del19/T790M/C797S), EGFR (L858R/T790M/C797S) or EGFR (WT) Enzymes
(§3) The inhibitory effects of the compounds against EGFR (del19/T790M/C797S), EGFR (L858R/T790M/C797S) or EGFR (WT) enzyme activity was determined by using HTRF. The procedures are as follows:
(§4) The WT or mutant EGFR proteins were incubated with a serially diluted compounds at 28° C. for 10 min followed by addition of biotin-labeled general tyrosine kinase (TK) substrate and ATP. The mixture was incubated at room temperature for 40 min for reaction. After the termination of the reaction, an Eu3+-Cryptate-labeled antibody against TK and streptavidin-XL665 were added and the mixture was incubated at room temperature for 60 min. The luminescences at 615 nm and 665 nm were detected and the ratio of 665/615 was calculated to quantify the level of TK substrate phosphorylation. Inhibition % and IC50 of the compounds were calculated relative to the control group.
(In TR-FRET formats the signal depends on donor and acceptor labels being close together.)

Assay [2] deals with PC9 cells with EGFR Del19/T790M/C797S overexpression. Kind of assay: In vivo pharmacodynamic study, mouse PC9 (EGFR Del19/T790M/C797S) subcutaneous xenograft tumor model. Details: species or system BALB/c nude mice. Particulars: intragastric once daily, day 28, PC9 (EGFR Del19/T790M/C797S) xenograft. The procedure: In Vivo Pharmacodynamic Study—Mouse PC9(EGFR Del19/T790M/C797S) Subcutaneous Xenograft Tumor Model
as §1, with “PC9” for “H1975”, “with” for “carrying”, “Del19/T790M/C797S overexpression.” for “T790M mutation.”

For the next assay, the system named is A431 (EGFR WT) cells. In words: Antiproliferative activity against A431 (EGFR WT) cells, Cell Titer Glow. The assay is classed as cell-based. To be noted: Homo sapiens, A-431, 72 h; three days after addition of compounds; read-out: Antiproliferative activity A431 wild-type (WT) IC50. The method in brief: (§5)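 Cells seeded (3000 Ba/F3 del19/T790M/C797S or 2000 A431 per well), compounds added after one day, serially diluted up to 500 nM for Ba/F3 and up to 10 μM for A431. Growth read by Cell Titer Glow after 3 days; IC50 from % growth inhibition.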

Another assay addresses EGFR (L858R/T790M/C797S) (Homo sapiens, UniProt P00533, C797S/L858R/T790M). In words: HTRF inhibitory activity assay against EGFR (L858R/T790M/C797S) enzyme. The class given is biochemical. To be noted: read-out: EGFR (L858R/T790M/C797S) inhibition (%) (0.3 nM compound). As to the method:
as §2, §3, §4

The target in assay [3] is Ba/F3 (EGFR^del19/T790M/C797S) triple-mutant cells (Homo sapiens, UniProt P00533, T790M/C797S, cells depend on it, form not given). In words: Antiproliferative activity against Ba/F3 (EGFR del19/T790M/C797S) triple-mutant cells, Cell Titer Glow. The class given is cell-based. Particulars: three days after addition of compounds; read-out: Antiproliferative activity BaF3(EGFR^del19/T790M/C797S) IC50. The method in brief: as §5
Sequence of Ba/F3 (EGFR^del19/T790M/C797S) triple-mutant cells (P00533 with tags, fused parts or gaps DEL746-750/T790M/C797S, form open): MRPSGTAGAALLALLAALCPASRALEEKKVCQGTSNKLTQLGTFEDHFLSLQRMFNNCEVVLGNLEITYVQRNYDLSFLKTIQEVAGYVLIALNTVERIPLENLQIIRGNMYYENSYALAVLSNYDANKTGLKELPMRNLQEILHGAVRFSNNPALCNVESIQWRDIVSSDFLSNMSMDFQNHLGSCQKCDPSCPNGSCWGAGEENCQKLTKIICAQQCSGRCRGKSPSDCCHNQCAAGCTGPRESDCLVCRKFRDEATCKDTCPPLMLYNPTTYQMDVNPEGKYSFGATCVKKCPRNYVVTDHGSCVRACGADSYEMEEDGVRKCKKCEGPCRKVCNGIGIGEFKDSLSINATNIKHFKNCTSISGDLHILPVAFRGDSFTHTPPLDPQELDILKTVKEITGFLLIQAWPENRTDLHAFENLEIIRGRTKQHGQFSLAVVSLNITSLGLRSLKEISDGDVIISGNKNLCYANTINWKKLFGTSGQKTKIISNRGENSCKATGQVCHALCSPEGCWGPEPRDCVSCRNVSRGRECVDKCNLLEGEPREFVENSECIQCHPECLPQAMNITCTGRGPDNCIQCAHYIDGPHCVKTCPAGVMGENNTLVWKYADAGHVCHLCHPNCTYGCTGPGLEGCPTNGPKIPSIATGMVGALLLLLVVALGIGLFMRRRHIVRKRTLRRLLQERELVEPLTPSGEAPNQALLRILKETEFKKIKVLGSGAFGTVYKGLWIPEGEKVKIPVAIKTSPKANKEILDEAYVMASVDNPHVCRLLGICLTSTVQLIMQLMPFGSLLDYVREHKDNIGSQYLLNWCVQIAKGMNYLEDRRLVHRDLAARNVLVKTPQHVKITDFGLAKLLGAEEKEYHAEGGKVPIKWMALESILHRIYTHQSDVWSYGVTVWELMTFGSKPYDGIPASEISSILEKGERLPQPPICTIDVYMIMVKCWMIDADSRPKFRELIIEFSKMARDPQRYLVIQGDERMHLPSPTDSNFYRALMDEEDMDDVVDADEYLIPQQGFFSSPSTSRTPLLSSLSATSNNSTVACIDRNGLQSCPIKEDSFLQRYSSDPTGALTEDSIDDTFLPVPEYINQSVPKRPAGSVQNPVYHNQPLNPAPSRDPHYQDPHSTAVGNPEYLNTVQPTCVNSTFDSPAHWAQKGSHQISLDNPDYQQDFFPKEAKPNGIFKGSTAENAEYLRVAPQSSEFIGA

Sequence of EGFR (WT) (P00533 25-1210): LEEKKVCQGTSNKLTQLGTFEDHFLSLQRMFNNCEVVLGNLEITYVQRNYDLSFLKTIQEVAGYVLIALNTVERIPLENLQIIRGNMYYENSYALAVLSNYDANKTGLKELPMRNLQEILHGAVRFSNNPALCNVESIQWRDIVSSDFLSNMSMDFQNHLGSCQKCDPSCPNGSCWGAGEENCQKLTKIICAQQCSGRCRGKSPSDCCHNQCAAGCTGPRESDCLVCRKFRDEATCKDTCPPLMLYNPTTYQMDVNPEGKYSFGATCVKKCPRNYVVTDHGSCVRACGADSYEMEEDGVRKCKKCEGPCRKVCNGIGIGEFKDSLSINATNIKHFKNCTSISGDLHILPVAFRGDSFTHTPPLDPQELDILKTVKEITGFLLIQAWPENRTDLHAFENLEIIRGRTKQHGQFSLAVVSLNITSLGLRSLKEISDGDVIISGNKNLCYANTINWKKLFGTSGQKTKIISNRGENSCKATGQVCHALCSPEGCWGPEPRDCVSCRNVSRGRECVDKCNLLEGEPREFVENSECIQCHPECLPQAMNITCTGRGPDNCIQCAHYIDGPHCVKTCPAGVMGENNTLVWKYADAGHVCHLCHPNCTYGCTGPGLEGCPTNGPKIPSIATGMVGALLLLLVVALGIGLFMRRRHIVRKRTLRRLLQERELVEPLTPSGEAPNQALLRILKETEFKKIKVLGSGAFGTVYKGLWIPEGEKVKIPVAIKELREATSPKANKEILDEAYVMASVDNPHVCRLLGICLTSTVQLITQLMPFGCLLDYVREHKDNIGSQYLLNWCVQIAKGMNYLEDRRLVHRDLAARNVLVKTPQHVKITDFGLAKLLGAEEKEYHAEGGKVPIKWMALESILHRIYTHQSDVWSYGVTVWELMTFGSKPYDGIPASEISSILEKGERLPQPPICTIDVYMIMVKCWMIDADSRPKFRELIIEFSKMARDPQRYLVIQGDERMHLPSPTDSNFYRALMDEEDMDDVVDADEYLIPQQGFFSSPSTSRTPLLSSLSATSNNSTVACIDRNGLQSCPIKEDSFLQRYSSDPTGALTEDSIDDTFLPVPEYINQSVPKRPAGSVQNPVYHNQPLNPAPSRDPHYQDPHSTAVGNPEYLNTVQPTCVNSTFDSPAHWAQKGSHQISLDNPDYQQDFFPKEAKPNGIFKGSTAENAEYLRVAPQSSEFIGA
Sequence of EGFR (L858R/T790M/C797S) (P00533 25-1210 T790M/C797S/L858R): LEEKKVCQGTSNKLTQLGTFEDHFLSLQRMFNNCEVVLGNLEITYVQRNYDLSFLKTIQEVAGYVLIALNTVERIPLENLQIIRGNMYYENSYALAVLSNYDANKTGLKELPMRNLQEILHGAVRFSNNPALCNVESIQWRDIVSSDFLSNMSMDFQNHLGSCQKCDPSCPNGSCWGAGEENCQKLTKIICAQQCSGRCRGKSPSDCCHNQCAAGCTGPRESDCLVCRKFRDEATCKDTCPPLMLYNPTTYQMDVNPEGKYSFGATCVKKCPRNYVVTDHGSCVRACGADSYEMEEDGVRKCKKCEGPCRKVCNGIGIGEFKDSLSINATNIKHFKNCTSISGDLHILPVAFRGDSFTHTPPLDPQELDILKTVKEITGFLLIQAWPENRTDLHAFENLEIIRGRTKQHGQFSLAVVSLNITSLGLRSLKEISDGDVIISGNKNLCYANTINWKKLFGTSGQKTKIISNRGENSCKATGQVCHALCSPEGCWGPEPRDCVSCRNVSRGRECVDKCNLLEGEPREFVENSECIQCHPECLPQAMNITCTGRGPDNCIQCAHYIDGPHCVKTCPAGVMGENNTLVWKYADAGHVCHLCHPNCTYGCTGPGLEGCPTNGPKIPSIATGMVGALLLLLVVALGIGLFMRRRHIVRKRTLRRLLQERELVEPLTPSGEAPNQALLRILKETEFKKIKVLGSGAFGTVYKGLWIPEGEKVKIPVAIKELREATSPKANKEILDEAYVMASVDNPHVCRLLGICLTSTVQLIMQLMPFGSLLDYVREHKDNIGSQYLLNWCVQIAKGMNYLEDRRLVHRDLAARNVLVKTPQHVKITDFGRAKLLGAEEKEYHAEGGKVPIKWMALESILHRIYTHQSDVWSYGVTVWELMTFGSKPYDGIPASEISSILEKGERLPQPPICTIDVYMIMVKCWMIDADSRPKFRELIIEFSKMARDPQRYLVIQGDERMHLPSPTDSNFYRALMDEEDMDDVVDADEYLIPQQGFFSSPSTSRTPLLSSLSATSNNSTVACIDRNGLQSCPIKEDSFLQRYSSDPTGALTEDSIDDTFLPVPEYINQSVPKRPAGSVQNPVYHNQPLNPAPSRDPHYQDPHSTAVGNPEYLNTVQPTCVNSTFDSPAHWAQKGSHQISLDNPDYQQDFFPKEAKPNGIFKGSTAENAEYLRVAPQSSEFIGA

Take `CN1CCN(C2CCN(c3ccc(Nc4nc(NC5CCOCC5)c(-c5cccc6[nH]ccc56)nc4C(N)=O)cc3)CC2)CC1` [compound 511, 6-(1H-indol-4-yl)-3-((4-(4-(4-methylpiperazin-1-yl)piperidin-1-yl)phenyl)amino)-5-((tetrahydro-2H-pyran-4-yl)amino)pyrazine-2-carboxamide]: the “EGFR (del19/T790M/C797S) inhibition (%) (0.3 nM compound)” value (from here on “EGFR (del19/T790M/C797S) inhibition (%)”) in the assay on EGFR (del19/T790M/C797S) is listed as “+++ (+++ indicates an inhibition greater than 50%.)”. The “TGI (tumor growth inhibition)” value in assay [1] (60 mg/kg) is recorded as 99%; in assay [1] (80 mg/kg), 104%; in assay [2] (60 mg/kg) it was 87.41%; in assay [2] (80 mg/kg) it was 93.17%. Besides, the IC50 against EGFR (WT) came to 2.82 nM; in the assay with A431 (EGFR WT) cells it was 60 nM. Further, the inhibition at 0.0003 µM on EGFR (L858R/T790M/C797S) was over 50%. For the same molecule, the GI50 in assay [3] worked out at 9 nM.
Take `CN1CCN(C2CCN(c3ccc(Nc4nc(N[C@H]5CC[C@H](O)CC5)c(-c5cccc6[nH]ccc56)nc4C(N)=O)cc3)CC2)CC1` [compound 526]: in the assay on EGFR (del19/T790M/C797S), the “EGFR (del19/T790M/C797S) inhibition (%)” value is on record as “+++ (+++ indicates an inhibition greater than 50%.)”. Besides, the figures for the IC50 at EGFR (WT) and in the assay on A431 (EGFR WT) cells were 0.33 nM and 100 nM, respectively. At EGFR (L858R/T790M/C797S), the inhibition at 0.0003 µM was over 50%. In addition, the GI50 in assay [3] is 5 nM.
As to `CN1CCN(C2CCN(c3ccc(Nc4nc(NC5CC6(COC6)C5)c(-c5cccc6[nH]ccc56)nc4C(N)=O)cc3)CC2)CC1` [compound 527], the “EGFR (del19/T790M/C797S) inhibition (%)” value with EGFR (del19/T790M/C797S) is on record as “+++ (+++ indicates an inhibition greater than 50%.)”. Moreover, the IC50 turned out to be 1.7 nM on EGFR (WT) and 100 nM in the assay with A431 (EGFR WT) cells. Besides, the inhibition at 0.0003 µM on EGFR (L858R/T790M/C797S) was over 50%. Moreover, in assay [3], the GI50 amounted to 4 nM.
